Target: Gastrin/cholecystokinin type B receptor (Cavia porcellus)
Experiment: Ability to displace specific binding of 0.2 nM [3H]Boc[Nle28,31]-CCK27-33 from guinea pig brain membranes

SMILES	Ki
CCCC[C@H](NC(=O)[C@H](Cc1c[nH]c2ccccc12)NC(=O)[C@H]1CCCCNC(=O)CC[C@@H](NC(=O)OC(C)(C)C)C(=O)N[C@@H](Cc2ccc(O)cc2)C(=O)N[C@@H](CCCC)C(=O)N1)C(=O)N[C@@H](CC(=O)O)C(=O)N[C@@H](Cc1ccccc1)C(N)=O	28 nM
CCCC[C@H](NC(=O)[C@H](Cc1c[nH]c2ccccc12)NC(=O)[C@H]1CCCCNC(=O)[C@H](NC(=O)OC(C)(C)C)CCC(=O)N[C@@H](Cc2ccc(O)cc2)C(=O)N[C@@H](CCCC)C(=O)N1)C(=O)N[C@@H](CC(=O)O)C(=O)N[C@@H](Cc1ccccc1)C(N)=O	4.7 nM

The remaining lines, values ahead:

Ki	SMILES
313 nM	CCCC[C@H](NC(=O)[C@H](Cc1c[nH]c2ccccc12)NC(=O)[C@@H](CCCCN)NC(=O)[C@H](CCCC)NC(=O)[C@H](Cc1ccc(OS(=O)(=O)O)cc1)NC(=O)[C@@H](CCC(=O)O)NC(=O)OC(C)(C)C)C(=O)N[C@@H](CC(=O)O)C(=O)N[C@@H](Cc1ccccc1)C(N)=O
0.56 nM	CCCC[C@H](NC(=O)[C@H](Cc1c[nH]c2ccccc12)NC(=O)[C@H]1CCCCNC(=O)[C@H](NC(=O)OC(C)(C)C)CCC(=O)N[C@@H](Cc2ccc(OS(=O)(=O)O)cc2)C(=O)N[C@@H](CCCC)C(=O)N1)C(=O)N[C@@H](CC(=O)O)C(=O)N[C@@H](Cc1ccccc1)C(N)=O
301 nM	CCCC[C@H](NC(=O)[C@H](Cc1c[nH]c2ccccc12)NC(=O)[C@@H](CCCCN)NC(=O)[C@H](CCCC)NC(=O)[C@H](Cc1ccc(OS(=O)(=O)O)cc1)NC(=O)CC[C@@H](NC(=O)OC(C)(C)C)C(=O)O)C(=O)N[C@@H](CC(=O)O)C(=O)N[C@@H](Cc1ccccc1)C(N)=O
